# Measurements reported in patent US9961898B2, “Method for controlling plant disease” (SUMITOMO CHEMICAL COMPANY, LIMITED, priority 2008, dated 2018).
# Tests used:
# Format in all cases: in vivo
# [1] = tested on: Pythium ultimum; assay: Seed treatment, emergence of cotton under field conditions; details: for Ratio of sound non-transgenic seeds: non-transgenic cotton seeds; for Ratio of sound transgenic seeds: transgenic cotton seeds (Bacillus thuringiensis endotoxins, glyphosate tolerant)
# Protocol: (§1) Ethaboxam, formulated in a flowable concentrate for seed treatment use, was added to water so that the total slurry applied to a specified amount of seed would deliver a designated concentration. The prepared slurry was applied to non-transgenic corn seeds and transgenic corn seeds having both glyphosate tolerance and rootworm resistance. […] Emergence (%) was determined at 7 and 14 DAP and recorded in Table 2.
# The same procedure as Test example 2 was conducted, except that cotton seeds which express Bacillus thuringiensis endotoxins and tolerant against glyphosate, were used in place of corn seeds. Disease incited by Pythium ultimum is reduced of the […]. The transgenic cotton source provided higher field stand establishment of seedlings when compared to the non-transgenic cotton. (Table 3).
# [2] = tested on: Pythium spp.; assay: Seed treatment, emergence of corn under field conditions; details: for Ratio of sound non-transgenic seeds: non-transgenic corn seeds; for Ratio of sound transgenic seeds: transgenic corn seeds (glyphosate tolerance, rootworm resistance)
# Protocol: as §1
# [3] = tested on: Pythium disease; assay: Seed treatment, emergence of corn seedlings in Pythium-infested soil (tray test); details: 14 days 10° C. then 11 days 18° C.; for Ratio of sound non-transgenic seeds: non-transgenic corn seeds; for Ratio of sound transgenic seeds: transgenic corn seeds (glyphosate tolerance, rootworm resistance)
# Protocol: Ethaboxam, formulated in a flowable concentrate for seed treatment use, was added to water so that the total slurry applied to a specified amount of seed would deliver a designated concentration of ethaboxam per 100 KG seed. The prepared slurry was applied to non-transgenic corn seeds and to transgenic corn seeds having both glyphosate tolerance and rootworm resistance. In a tray, Kimpack (absorbent cellulose wadding, trademark of Kimberly-Clark) was placed and wetted. Each of the corn seed types of each treatment rate was placed on the Kimpack and covered with soil, which is a 1:1 mixture of Pythium-infested field soil and sand. After keeping the soil saturated for 14 days at 10° C., the trays were transferred to 18° C. for 11 days.
smiles,measurement,setting,value
"CCNc1nc(CC)c(C(=O)NC(C#N)c2cccs2)s1 (centres unmarked) [ethaboxam, N-(cyano-2-thienylmethyl)-4-ethyl-2-(ethylamino)-5-thiazolecarboxamide]",Ratio of sound non-transgenic seeds,[1]; ethaboxam 0.05 gai/100 kg seed,1.75%
same,Ratio of sound non-transgenic seeds,[1]; ethaboxam 0.1 gai/100 kg seed,6.25%
same,Ratio of sound non-transgenic seeds,[1]; ethaboxam 0.5 gai/100 kg seed,10.25%
same,Ratio of sound non-transgenic seeds,[1]; ethaboxam 1.0 gai/100 kg seed,7%
same,Ratio of sound non-transgenic seeds,[1]; ethaboxam 5 gai/100 kg seed,9.5%
same,Ratio of sound non-transgenic seeds,[1]; ethaboxam 10 gai/100 kg seed,6.5%
same,Ratio of sound transgenic seeds,[1]; ethaboxam 0.05 gai/100 kg seed,7.5%
same,Ratio of sound transgenic seeds,[1]; ethaboxam 0.1 gai/100 kg seed,6.25%
same,Ratio of sound transgenic seeds,[1]; ethaboxam 0.5 gai/100 kg seed,6%
same,Ratio of sound transgenic seeds,[1]; ethaboxam 1.0 gai/100 kg seed,14.25%
same,Ratio of sound transgenic seeds,[1]; ethaboxam 5 gai/100 kg seed,8.5%
same,Ratio of sound transgenic seeds,[1]; ethaboxam 10 gai/100 kg seed,17.75%
same,Ratio of sound non-transgenic seeds,[2]; ethaboxam 0.05 gai/100 kg seed,74.5%
same,Ratio of sound non-transgenic seeds,[2]; ethaboxam 0.1 gai/100 kg seed,78.25%
same,Ratio of sound non-transgenic seeds,[2]; ethaboxam 0.5 gai/100 kg seed,76.25%
same,Ratio of sound non-transgenic seeds,[2]; ethaboxam 1.0 gai/100 kg seed,77.75%
same,Ratio of sound non-transgenic seeds,[2]; ethaboxam 5 gai/100 kg seed,81%
same,Ratio of sound non-transgenic seeds,[2]; ethaboxam 10 gai/100 kg seed,76.25%
same,Ratio of sound transgenic seeds,[2]; ethaboxam 0.05 gai/100 kg seed,86.25%
same,Ratio of sound transgenic seeds,[2]; ethaboxam 0.1 gai/100 kg seed,85%
same,Ratio of sound transgenic seeds,[2]; ethaboxam 0.5 gai/100 kg seed,89.25%
same,Ratio of sound transgenic seeds,[2]; ethaboxam 1.0 gai/100 kg seed,87.75%
same,Ratio of sound transgenic seeds,[2]; ethaboxam 5 gai/100 kg seed,86%
same,Ratio of sound transgenic seeds,[2]; ethaboxam 10 gai/100 kg seed,88.5%
same,Ratio of sound non-transgenic seeds,[3]; ethaboxam 0.05 gai/100 kg seed,39%
same,Ratio of sound non-transgenic seeds,[3]; ethaboxam 0.1 gai/100 kg seed,41%
same,Ratio of sound non-transgenic seeds,[3]; ethaboxam 0.5 gai/100 kg seed,47%
same,Ratio of sound non-transgenic seeds,[3]; ethaboxam 1.0 gai/100 kg seed,59%
same,Ratio of sound transgenic seeds,[3]; ethaboxam 0.05 gai/100 kg seed,57%
same,Ratio of sound transgenic seeds,[3]; ethaboxam 0.1 gai/100 kg seed,59%
same,Ratio of sound transgenic seeds,[3]; ethaboxam 0.5 gai/100 kg seed,65%
same,Ratio of sound transgenic seeds,[3]; ethaboxam 1.0 gai/100 kg seed,67%
